Test [1] deals with A/California/07/2009 (H1N1) virus. As to the kind of experiment: microbe, parasite or virus in culture. To be noted: for activity at 10 µM: read-out: % plaque formation at 10 μM drug concentration against A/California/07/2009 (H1N1); for EC50: read-out: EC50 against A/California/07/2009 (H1N1). It is filed as cell-based, influenza A virus.
The target of test [2] is wild-type AM2 channel (AM2-WT) (Influenza A virus, UniProt P0DOF5). As to the kind of experiment: biochemical. The settings on record: pH 5.5, read-out: Electrophysiological TEVC assay (% WT channel inhibition), 100 μM, two-minute time point, pH 5.5, Xenopus laevis oocytes.

These results are taken from PMC5967881 (Journal of medicinal chemistry, 2017).

Read-outs that look alike come from different tables or passages of the source. A value given as a limit tells only on which side of the number the result lay.

Sequence of wild-type AM2 channel (AM2-WT) (P0DOF5 whole entry): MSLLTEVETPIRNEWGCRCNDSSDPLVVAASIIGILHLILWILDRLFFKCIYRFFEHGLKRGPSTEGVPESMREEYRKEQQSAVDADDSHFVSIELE

In the case of `c1ccc(-c2cc(CNC34CC5CC(CC(C5)C3)C4)no2)cc1` [9a, N-[(5-phenyl-1,2-oxazol-3-yl)methyl]adamantan-1-amine], in test [1] (Influenza A virus, H1N1, MDCK), the activity at 10 µM was < 20% and the EC50 was 100 to 1200 nM. Further, the inhibition at 100 µM in test [2] was ≤ 30%.
In the same order, the values of `OC12CC3CC(C1)CC(NCc1cc(-c4ccccc4Cl)on1)(C3)C2` [9d, 3-({[5-(2-chlorophenyl)-1,2-oxazol-3-yl]methyl}amino)adamantan-1-ol] are < 20%, 100 to 1200 nM and ≤ 30%.
For the compound `CSc1ccccc1-c1cc(CNC23CC4CC(CC(O)(C4)C2)C3)no1` [9f, 3-[({5-[2-(methylsulfanyl)phenyl]-1,2-oxazol-3-yl}methyl)amino]adamantan-1-ol], in test [1] (Influenza A virus, H1N1, MDCK), the activity at 10 µM is < 20% and the EC50 fell in the range of 100 to 1200 nM. For the same compound, in test [2], the inhibition at 100 µM was ≤ 30%.
For the compound `Oc1ccccc1-c1cc(CNC23CC4CC(CC(C4)C2)C3)no1` [9h, 2-(3-(((adamantan-1-yl)amino)methyl)isoxazol-5-yl)phenol], in test [1] (Influenza A virus, H1N1, MDCK), the activity at 10 µM was < 20% and the EC50 is 100 to 1200 nM. Besides, in test [2], the inhibition at 100 µM was ≤ 30%.
On to `Clc1ccc(-c2cc(CNC34CC5CC(CC(C5)C3)C4)no2)s1` [9q, N-((5-(5-chlorothiophen-2-yl)isoxazol-3-yl)methyl)adamantan-1-amine], for which, in test [1], the “% plaque formation at 10 μM drug concentration against A/California/07/2009 (H1N1)” value was determined as 0% and the EC50 was 100 ± 30 nM. In addition, the activity at 10 µM in test [1] (Influenza A virus, H1N1, MDCK) was < 20%.
As for `Clc1cc(-c2cc(CNC34CC5CC(CC(C5)C3)C4)no2)cs1` [9r, N-((5-(5-chlorothiophen-3-yl)isoxazol-3-yl)methyl)adamantan-1-amine], the activity at 10 µM in test [1] (Influenza A virus, H1N1, MDCK) was < 20%.
Consider `COc1sccc1-c1cc(CNC23CC4CC(CC(C4)C2)C3)no1` [9t, N-((5-(2-methoxythiophen-3-yl)isoxazol-3-yl)methyl)adamantan-1-amine], for which, in test [1] (Influenza A virus, H1N1, MDCK), the activity at 10 µM was < 20%. The inhibition at 100 µM in test [2] is ≤ 30%.
For `Clc1cc(-c2cc(CNC34CC5CC(CC(C5)C3)C4)no2)c(Cl)s1` [9u, N-((5-(2,5-dichlorothiophen-3-yl)isoxazol-3-yl)methyl)adamantan-1-amine], the activity at 10 µM in test [1] (Influenza A virus, H1N1, MDCK) is < 20%.
Still for that read-out and setting: the same measure for `OC12CC3CC(C1)CC(NCc1cc(-c4cc(Cl)sc4Cl)on1)(C3)C2` [9v, 3-({[5-(2,5-dichlorothiophen-3-yl)-1,2-oxazol-3-yl]methyl}amino)adamantan-1-ol]: < 20%.
As for “N-((5-(2-(methylsulfonyl)phenyl)isoxazol-3-yl)methyl)adamantan-1-amine [9m]”, the “% plaque formation at 10 μM drug concentration against A/California/07/2009 (H1N1)” value in test [1] stood at 57.1 ± 2.4%.
